Data: patent publication US6384224B2, “Certain 1-(2-naphthyl) and 1-(2-azanaphthyl)-4-(1-phenylmethyl) piperazines; dopamine receptor subtype specific ligands” (Neurogen Corporation, priority 1997, dated 2002)

Test system: D4 receptors
Test: D4 receptor binding, 3H-YM 09151-2 displacement, COS cell pellets
Parameters: species or system African Green monkey
Settings: evaluated in the assays described above (Example 7); read-out: interaction with the D4 receptor subtype (IC50)
Protocol: (§1) Pellets of COS cells containing recombinantly produced D2 or D4 receptors from African Green monkey are used for the assays. The sample is homogenized in 100 volumes (w/vol) of 0.05 M Tris HCl buffer at 4° C. and pH 7.4. The sample is then centrifuged at 30,000×g and resuspended and rehomogenized. The sample is again centrifuged as described above and the final tissue sample is frozen until use. The tissue is resuspended 1:20 (wt/vol) in 0.05 M Tris HCl buffer containing 100 mm NaCl.
(§2) Incubations are carried out at […] and contain 0.4 ml of tissue sample, 0.5 nM ^3H-YM 09151-2 (Nemonapride, cis-5-Chloro-2-methoxy-4-(methylamino)-N-(2-methyl-2-(phenylmethyl)-3-pyrrolidinyl)benzamide) and the compound of interest in a total incubation of 1.0 ml. Nonspecific binding is defined as that binding found in the presence of […]; without further additions, nonspecific binding is less than 20% of total binding. Binding characteristics for examples of compounds encompassed within Formula I for the D2 and D4 receptor subtypes are shown in Table 2 for rat striatal homogenates.

SMILES | IC50
c1ccc(CN2CCN(c3ccc4ccccc4c3)CC2)cc1 [Comparative Compound A, 1-naphth-2-yl-4-benzylpiperazine, reference compound] | 0.033 µM
c1ccc(CN2CCN(c3ccc4ccccc4n3)CC2)cc1 [Comparative Compound B, 1-(quinolin-2-yl)-4-benzylpiperazine, reference compound] | 0.194 µM

Same assay, conditions: recombinant receptor in COS cells; 0.5 nM 3H-YM 09151-2

SMILES | Ki
Clc1ccc(CN2CCN(c3cnc4ccccc4n3)CC2)cc1 [Compound 3] | 0.011 µM
Clc1ccc(CN2CCN(c3ccc4ccccc4c3)CC2)cc1 [Compound 6] | 0.009 µM
Cc1ccc(CN2CCN(c3ccc4ccccc4n3)CC2)cc1 [Compound 2] | 0.008 µM
Clc1ccc(CN2CCN(c3ccc4c(n3)CCCC4)CC2)cc1 [Compound 7] | 0.007 µM

Target: T1, D2 receptors (Chlorocebus aethiops, UniProt P52702)
T1 construct: expressed in transfected cells; host or cells: COS cells
Test: D2 receptor binding, 3H-YM 09151-2 displacement, COS cell pellets
Parameters: species or system African Green monkey
Settings: recombinant receptor in COS cells; 0.5 nM 3H-YM 09151-2
Protocol: as §1, §2

T1 sequence (P52702 whole entry): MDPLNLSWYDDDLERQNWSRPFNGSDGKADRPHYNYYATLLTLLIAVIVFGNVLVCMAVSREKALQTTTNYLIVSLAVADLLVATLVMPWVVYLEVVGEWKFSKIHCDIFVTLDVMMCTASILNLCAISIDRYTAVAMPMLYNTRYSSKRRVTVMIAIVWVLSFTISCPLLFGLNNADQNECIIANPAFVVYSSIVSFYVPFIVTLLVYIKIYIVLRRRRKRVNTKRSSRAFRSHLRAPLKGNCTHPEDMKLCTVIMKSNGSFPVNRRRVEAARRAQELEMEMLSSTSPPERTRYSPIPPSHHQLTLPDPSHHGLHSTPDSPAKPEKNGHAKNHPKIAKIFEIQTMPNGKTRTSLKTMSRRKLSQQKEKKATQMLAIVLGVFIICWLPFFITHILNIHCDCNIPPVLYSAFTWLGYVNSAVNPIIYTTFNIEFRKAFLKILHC

SMILES | Ki
Clc1ccc(CN2CCN(c3cnc4ccccc4n3)CC2)cc1 [Compound 3] | > 4 µM
Clc1ccc(CN2CCN(c3ccc4ccccc4c3)CC2)cc1 [Compound 6] | > 4 µM
Cc1ccc(CN2CCN(c3ccc4ccccc4n3)CC2)cc1 [Compound 2] | > 4 µM
Clc1ccc(CN2CCN(c3ccc4c(n3)CCCC4)CC2)cc1 [Compound 7] | 1.93 µM

Test system: not given
Test: not given
Settings: not given

SMILES | melting point
Cc1ccc(CN2CCN(c3ccc4ccccc4n3)CC2)cc1.Cl | 278 to 280 °C
Br.Clc1ccc(CN2CCN(c3ccc4ccccc4n3)CC2)cc1 | 268 to 271 °C
Br.Cc1cc(N2CCN(Cc3ccc(Cl)cc3)CC2)nc2c(C)cccc12 | 262 to 264 °C
CC(C)(C)c1ccc(CN2CCN(c3ccc4ccccc4n3)CC2)cc1.Cl | 285 to 287 °C
Br.Cc1nc2ccccc2nc1N1CCN(Cc2ccc(Cl)cc2)CC1 | 293 to 295 °C
Br.Cc1cc(N2CCN(Cc3ccc(Cl)cc3)CC2)nc2ccccc12 | 215 to 217 °C
Br.Fc1ccc(CN2CCN(c3ccc4ccccc4c3)CC2)cc1 | 244 to 246 °C
Br.Cc1ccc2c(C)cc(N3CCN(Cc4ccc(Cl)cc4)CC3)nc2c1 | 295 to 296 °C
Fc1cc(N2CCN(Cc3ccccc3)CC2)nc2ccccc12.O=C(O)C(=O)O | 186 to 187 °C
Br.FC(F)(F)c1ccc(CN2CCN(c3ccc4ccccc4n3)CC2)cc1 | 271 to 273 °C
COc1ccc2nc(N3CCN(Cc4ccc(Cl)cc4)CC3)cc(C)c2c1.Cl | 250 to 253 °C
CC(C)c1ccc(CN2CCN(c3ccc4ccccc4n3)CC2)cc1.Cl | 270 to 271 °C
FC(F)(F)Oc1ccc(CN2CCN(c3ccc4ccccc4n3)CC2)cc1 [Example 3(l), 1-(quinolin-2-yl)-4-(1-[4-trifluoromethoxyphenyl]methyl)piperazine] | 109 to 110 °C
Clc1ccc(CN2CCN(c3cnc4ccccc4n3)CC2)cc1.O=C(O)C(=O)O | 209 to 212 °C
Fc1ccc(CN2CCN(c3cc(F)c4ccccc4n3)CC2)cc1.O=C(O)C(=O)O | 191 to 193 °C
Br.Cc1ccc(CN2CCN(c3ccc4ccccc4c3)CC2)cc1 | 222 to 223 °C
Br.c1ccc2nc(N3CCN(Cc4ccc5c(c4)OCO5)CC3)ccc2c1 | 279 to 280 °C
Clc1ccc(CN2CCN(c3ncc4ccccc4n3)CC2)cc1.O=C(O)C(=O)O | 207 to 209 °C
Cl.Clc1ccc(CN2CCN(c3ccc4ccccc4c3)CC2)cc1 | 216 to 218 °C
Br.Fc1cccc(CN2CCN(c3ccc4ccccc4c3)CC2)c1 | 253 to 255 °C
Br.Fc1ccccc1CN1CCN(c2ccc3ccccc3c2)CC1 | 239 to 240 °C
Br.Clc1ccc(CN2CCN(c3ccc4ccccc4n3)CC2)cc1Cl | 285 to 287 °C
